Test results from ChEMBL document CHEMBL1141983, “QSAR of estrogen receptor modulators: exploring selectivity requirements for ER(alpha) versus ER(beta) binding of tetrahydroisoquinoline derivatives using E-state and physicochemical parameters” (Bioorg Med Chem Lett, 2005).

Key:
Estrogen receptor [1] = biological target: T1, Estrogen receptor (Homo sapiens, UniProt P03372)
T1 sequence (P03372 whole entry): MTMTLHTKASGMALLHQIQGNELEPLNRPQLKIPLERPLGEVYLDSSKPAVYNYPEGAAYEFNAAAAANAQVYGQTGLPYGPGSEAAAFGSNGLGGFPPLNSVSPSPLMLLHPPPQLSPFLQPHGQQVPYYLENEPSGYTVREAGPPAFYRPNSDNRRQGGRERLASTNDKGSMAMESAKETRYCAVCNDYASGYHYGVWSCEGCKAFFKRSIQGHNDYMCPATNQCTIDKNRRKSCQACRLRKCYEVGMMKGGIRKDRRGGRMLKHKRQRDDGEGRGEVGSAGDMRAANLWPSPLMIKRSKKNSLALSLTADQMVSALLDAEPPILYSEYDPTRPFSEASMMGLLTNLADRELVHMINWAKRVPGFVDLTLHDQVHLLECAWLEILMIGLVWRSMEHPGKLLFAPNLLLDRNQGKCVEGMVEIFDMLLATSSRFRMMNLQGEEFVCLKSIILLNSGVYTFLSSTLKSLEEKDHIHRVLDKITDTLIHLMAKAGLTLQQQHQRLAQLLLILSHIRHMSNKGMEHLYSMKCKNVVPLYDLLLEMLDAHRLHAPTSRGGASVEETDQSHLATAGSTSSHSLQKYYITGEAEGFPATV
Description: (§1) Inhibition of transcriptional activation by human estrogen receptor alpha

Estrogen receptor beta [2] = biological target: T2, Estrogen receptor beta (Homo sapiens, UniProt Q92731); assay: Inhibition of binding to human estrogen receptor beta
Estrogen receptor beta [3] = biological target: T2, Estrogen receptor beta; assay: Inhibition of transcriptional activation by human estrogen receptor beta
Estrogen receptor [4] = biological target: T1, Estrogen receptor; remark: listed apart in the source
Description: Inhibition of binding to human estrogen receptor alpha

Estrogen receptor [5] = biological target: T1, Estrogen receptor; remark: listed apart in the source
Description: as §1

T2 sequence (Q92731 whole entry): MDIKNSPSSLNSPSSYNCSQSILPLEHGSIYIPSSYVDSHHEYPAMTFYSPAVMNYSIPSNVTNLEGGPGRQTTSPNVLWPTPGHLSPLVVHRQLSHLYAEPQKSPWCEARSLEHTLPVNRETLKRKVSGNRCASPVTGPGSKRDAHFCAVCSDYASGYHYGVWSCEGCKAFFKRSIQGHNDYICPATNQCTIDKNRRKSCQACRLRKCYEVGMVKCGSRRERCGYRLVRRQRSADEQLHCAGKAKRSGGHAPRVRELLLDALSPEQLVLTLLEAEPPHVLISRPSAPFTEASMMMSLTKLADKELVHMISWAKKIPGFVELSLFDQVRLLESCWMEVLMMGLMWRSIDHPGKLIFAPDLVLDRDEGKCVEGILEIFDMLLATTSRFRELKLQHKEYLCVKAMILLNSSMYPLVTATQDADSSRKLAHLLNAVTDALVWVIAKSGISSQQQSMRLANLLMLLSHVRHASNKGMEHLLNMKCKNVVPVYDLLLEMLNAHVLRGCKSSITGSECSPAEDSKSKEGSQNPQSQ

Row | SMILES | pIC50(uM) (Estrogen receptor [1]) | also measured
1 | CC1(c2ccc(OCCN3CCCCCC3)cc2)c2ccc(O)cc2CCN1c1ccccc1 (stereo not given) | 2.824 | 
2 | CC(C)c1ccc(N2CCc3cc(O)ccc3C2(C)c2ccc(OCCN3CCCCC3)cc2)cc1 (stereo not given) | 2.284 | 
3 | CC1(c2ccc(OCCN3CCCCC3)cc2)c2ccc(O)cc2CCN1c1cccc(O)c1 (stereo not given) | 3.155 | 
4 | CC(C)c1ccc(N2CCc3cc(O)ccc3C2(C)c2ccc(OCCN3CCCC3)cc2)cc1 (stereo not given) | 2.585 | 
5 | CN(C)c1cccc(N2CCc3cc(O)ccc3C2c2ccc(OCCN3CCCCC3)cc2)c1 (stereo not given) |  | IC50 (Estrogen receptor beta [2]): 3.11 µM; IC50 (Estrogen receptor beta [3]): 2.18 µM; IC50 (Estrogen receptor [4]): 0.071 µM; IC50 (Estrogen receptor [5]): 0.0198 µM
6 | CC1(c2ccc(OCCN3CCCC3)cc2)c2ccc(O)cc2CCN1c1ccccc1 (stereo not given) | 2.745 | 
7 | CC1(c2ccc(OCCN3CCCC3)cc2)c2ccc(O)cc2CCN1c1ccc(F)cc1 (stereo not given) | 2.796 | 

Further lines, with some results ahead:

Row | pIC50(uM) (Estrogen receptor [1]) | SMILES | also measured
8 | 2.585 | CC1(c2ccc(OCCN3CCCCC3)cc2)c2ccc(O)cc2CCN1c1ccccc1 (stereo not given) | 
9 | 2.538 | CC1(c2ccc(OCCN3CCCC3)cc2)c2ccc(O)cc2CCN1c1cccc(Cl)c1 (stereo not given) | 
10 | 2.509 | CC1(c2ccc(OCCN3CCCCC3)cc2)c2ccc(O)cc2CCN1c1ccc(Cl)cc1 (stereo not given) | 
11 | 2.523 | CC1(c2ccc(OCCN3CCCC3)cc2)c2ccc(O)cc2CCN1c1cccc(F)c1 (stereo not given) | 
12 | 2.347 | CC1(c2ccc(OCCN3CCCCC3)cc2)c2ccc(O)cc2CCN1c1cccc(Cl)c1 (stereo not given) | 
